Tests used:
Assay type in all cases: biochemical
[1] = target: T1, human butyrylcholinesterase (hBChE) (Homo sapiens, UniProt P06276); assay: Progressive inhibition of hBChE by organophosphorus pesticides (Ellman method); conditions: for kinact/KI: read-out: ki, overall second-order rate constant of inhibition (converted)
T1 construct: hBChE derived from purified human plasma; from tissue; host or cells: human plasma

[2] = target: T2, human acetylcholinesterase (hAChE) (Homo sapiens, UniProt P22303); assay: Progressive inhibition of hAChE by organophosphorus pesticides (Ellman method); conditions: 25 °C, ± SEM; for kinact/KI: read-out: ki, overall second-order rate constant of inhibition (converted)
T2 construct: made in house

human AChE = human AChE (Homo sapiens, UniProt P22303)
[3] = target: methamidophos-inhibited hAChE (Homo sapiens, UniProt P22303)
[4] = target: fenamiphos-inhibited hAChE (Homo sapiens, UniProt P22303)
fenamiphos-inhibited hAChE, sequence (P22303 32-614): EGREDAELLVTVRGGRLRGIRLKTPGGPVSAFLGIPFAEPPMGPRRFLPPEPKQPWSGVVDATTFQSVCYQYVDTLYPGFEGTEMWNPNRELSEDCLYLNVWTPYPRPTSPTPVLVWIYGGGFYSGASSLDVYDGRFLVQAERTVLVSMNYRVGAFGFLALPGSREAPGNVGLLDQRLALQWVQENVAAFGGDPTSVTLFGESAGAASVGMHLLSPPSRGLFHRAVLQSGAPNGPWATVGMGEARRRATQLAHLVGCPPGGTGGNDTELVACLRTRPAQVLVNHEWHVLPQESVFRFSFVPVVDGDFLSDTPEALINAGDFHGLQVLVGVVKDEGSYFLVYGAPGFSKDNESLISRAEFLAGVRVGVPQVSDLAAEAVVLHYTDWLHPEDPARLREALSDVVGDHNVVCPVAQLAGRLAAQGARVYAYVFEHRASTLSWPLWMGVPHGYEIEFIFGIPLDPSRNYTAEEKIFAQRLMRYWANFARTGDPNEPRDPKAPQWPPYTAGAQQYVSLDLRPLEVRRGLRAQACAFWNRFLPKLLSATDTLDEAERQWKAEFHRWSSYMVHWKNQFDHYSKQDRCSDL

T1 sequence (P06276 29-602): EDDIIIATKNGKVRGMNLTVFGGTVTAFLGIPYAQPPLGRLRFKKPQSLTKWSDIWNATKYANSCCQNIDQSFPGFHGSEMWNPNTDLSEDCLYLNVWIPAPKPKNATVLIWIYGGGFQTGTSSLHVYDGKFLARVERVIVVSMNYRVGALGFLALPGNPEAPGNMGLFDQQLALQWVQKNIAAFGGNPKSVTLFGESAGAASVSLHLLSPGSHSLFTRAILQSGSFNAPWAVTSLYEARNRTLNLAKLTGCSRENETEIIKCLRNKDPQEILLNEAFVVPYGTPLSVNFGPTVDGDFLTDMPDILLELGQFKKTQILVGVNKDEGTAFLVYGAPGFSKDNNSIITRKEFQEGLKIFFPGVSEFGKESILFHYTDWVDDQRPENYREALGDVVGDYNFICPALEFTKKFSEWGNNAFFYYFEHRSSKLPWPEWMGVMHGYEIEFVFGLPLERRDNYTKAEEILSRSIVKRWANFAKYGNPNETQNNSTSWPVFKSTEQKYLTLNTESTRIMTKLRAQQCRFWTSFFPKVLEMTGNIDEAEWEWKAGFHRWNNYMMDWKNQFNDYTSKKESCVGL
methamidophos-inhibited hAChE, sequence (P22303 32-614): as the sequence (P22303 32-614) above
human AChE, sequence (P22303 32-614): as above
T2 sequence (P22303 32-614): as above

| Compound | kmax, first-order inhibition constant ([1]; hBChE, 25 °C, ± SEM) [min⁻¹] | Inhibition of AChE with oxime (human AChE) [%] | Reactmax (screening) [3] [%] | Reactmax, maximal percentage of reactivation [3] [%] | k2, maximal first-order reactivation rate constant [3] [min⁻¹] | kobs, observed reactivation rate (screening) [3] [min -1] | kr, overall second-order reactivation rate constant [3] | t, time to achieve maximum of reactivation (screening) [3] [h] | Reactmax (screening) [4] [%] | Reactmax, maximal percentage of reactivation [4] [%] | k2, maximal first-order reactivation rate constant [4] [min⁻¹] | kobs, observed reactivation rate (screening) [4] [min -1] | kr, overall second-order reactivation rate constant [4] [M⁻¹ s⁻¹] | t, time to achieve maximum of reactivation (screening) [4] [h] | also measured |
| --- | --- | --- | --- | --- | --- | --- | --- | --- | --- | --- | --- | --- | --- | --- | --- |
| CCCSP(=O)(OCC)SCCC [Ethoprophos, ethoprophos] | 0.58 ± 0.05 |  |  |  |  |  |  |  |  |  |  |  |  |  | Ki [1]: 36.4 ± 6.68 µM |
| CCOP(=O)(NC(C)C)Oc1ccc(SC)c(C)c1 (stereo not shown) [Fenamiphos, fenamiphos] | 0.16 ± 0.01 |  |  |  |  |  |  |  |  |  |  |  |  |  | ki, overall second-order rate constant of inhibition [2]: 3,982 ± 264 min^-1 M^-1; kmax, first-order inhibition constant [2]: 0.21 ± 0.01 min⁻¹; ki, overall second-order rate constant of inhibition ([1]; hBChE, 25 °C, ± SEM): 35,890 ± 8,484 min^-1 M^-1 |
| COP(N)(=O)SC (stereo not shown) [Methamidophos, methamidophos] |  |  |  |  |  |  |  |  |  |  |  |  |  |  | kinact/KI [2]: 46 M⁻¹ s⁻¹; ki lower than that of fenamiphos ([1]; hBChE): 90 fold; kinact/KI ([1]; hBChE, 25 °C, ± SEM): 6.43 M⁻¹ s⁻¹ |
| C[n+]1ccccc1C=NO [Oxime 2-PAM] |  | 11 | 86 | 80 | 2.7 ± 0.2 | 1.1558 | 42,190 ± 2,547 min^−1 M^−1 | 0.36 | 46 | 70 | 0.003 ± 0.0002 | 0.0011 | 0.125 ± 0.025 | 20 |  |
| ON=Cc1cc[n+](CCn2cc(C[n+]3ccccc3C=NO)nn2)cc1 [Oxime 14A] |  | 10 | 68 | 85 | 22.2 ± 3.8 | 6.7944 | 108,300 ± 17,090 min^−1 M^−1 | 0.08 | 42 | 45 | 0.069 ± 0.034 | 0.0062 | 1.43 ± 0.413 | 3 |  |
| CCOP(=S)(OCC)SCn1c(=O)oc2cc(Cl)ccc21 [Phosalone, phosalone] | 0.23 ± 0.02 |  |  |  |  |  |  |  |  |  |  |  |  |  | kinact/KI [2]: 35.5 M⁻¹ s⁻¹; Ki [1]: 97.9 ± 15.3 µM; kinact/KI ([1]; hBChE, 25 °C, ± SEM): 38.9 M⁻¹ s⁻¹ |
| ON=Cc1cc[n+](CCC[n+]2ccc(C=NO)cc2)cc1 [TMB-4] |  | 8 | 83 | 80 | 16.5 ± 6.6 | 4.2338 | 116,600 ± 12,380 min^−1 M^−1 | 0.16 | 49 | 65 | 0.082 ± 0.010 | 0.0177 | 2.237 ± 0.293 | 1 |  |
